Measured values taken from the supplement of paper PMC10307832.

How the values were obtained:
Experiment in all cases: relative viability (nuclei count vs DMSO), 5 days (fraction); higher = more cells survive
[1] = compound: CN1CCN(CC1)C2=CC(=C(C=C2)NC3=NC(=C(S3)C(=O)C4=C(C=CC=C4Cl)Cl)N)OC [XMD14-99] + CCNC(=O)c1noc(-c2cc(C(C)C)c(O)cc2O)c1-c1ccc(CN2CCOCC2)cc1 [Luminespib] (partner 0.01 µM)
Outline: (§1)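 Relative viability was taken as the ratio of nuclei in treated wells to nuclei in vehicle wells. Lung cancer cell lines in 1536-well plates received compounds by pin tool one day after seeding, either one drug alone or a fixed anchor-drug dose plus five library-drug doses (not always all listed) in √10 steps. Nuclei were counted on 4× images after 5 days of treatment, and values are medians of duplicate plates.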

[2] = compound: CN1CCN(CC1)C2=CC(=C(C=C2)NC3=NC(=C(S3)C(=O)C4=C(C=CC=C4Cl)Cl)N)OC [XMD14-99] + O=C(c1cc(Cc2n[nH]c(=O)c3ccccc23)ccc1F)N1CCN(C(=O)C2CC2)CC1 [Olaparib] (partner 8 µM)
Outline: as §1

[3] = compound: N[C@@H]1CCCN(c2c(/C=C3\SC(=O)NC3=O)cccc2-c2ccccc2)C1 [AZD1208] + NC(=O)Nc1cc(-c2cccc(F)c2)sc1C(=O)N[C@H]1CCCNC1 [AZD7762] (partner 0.2 µM)
Outline: as §1

[4] = compound: N[C@@H]1CCCN(c2c(/C=C3\SC(=O)NC3=O)cccc2-c2ccccc2)C1 [AZD1208] + CS(=O)(=O)N1CCN(Cc2cc3nc(-c4cccc5[nH]ncc45)nc(N4CCOCC4)c3s2)CC1 [Pictilisib] (partner 1 µM)
Outline: as §1

**Q.** Which results are given for EPLC-272H?
**A.** relative viability ([1]; first compound 0.08 µM): 0.658; relative viability ([1]; first compound 0.8 µM): 0.512; relative viability ([1]; first compound 2.53 µM): 0.417; relative viability ([1]; first compound 8 µM): 0.195; relative viability ([2]; first compound 0.08 µM): 0.711; relative viability ([2]; first compound 0.8 µM): 0.809; relative viability ([2]; first compound 2.53 µM): 0.802; relative viability ([2]; first compound 8 µM): 0.422; relative viability ([3]; first compound 0.08 µM): 0.276; relative viability ([3]; first compound 0.253 µM): 0.339; relative viability ([3]; first compound 0.8 µM): 0.205; relative viability ([3]; first compound 2.53 µM): 0.189; relative viability ([3]; first compound 8 µM): 0.271; relative viability ([4]; first compound 0.08 µM): 0.362; relative viability ([4]; first compound 0.253 µM): 0.278; relative viability ([4]; first compound 0.8 µM): 0.349; relative viability ([4]; first compound 2.53 µM): 0.324; relative viability ([4]; first compound 8 µM): 0.271
